Experimental data published in a melting point compilation (Tetko et al.).

melting point [°C]	Compound
120	O=C1c2ccccc2C(=O)C1c1ccc(F)cc1
102	CC(=O)N(C)C(=O)COC(=O)c1ccccc1
167	C[Si](O)(c1ccccc1)c1ccccc1
177 to 178	Sc1nnc(-c2cccc3ccccc23)n1Cc1ccco1
73	O=C(C=CC(=O)Oc1ccccc1)Oc1ccccc1
258	Cc1ccccc1/C=C(/C#N)c1nc2ccccc2c(=O)[nH]1
225	O=[N+]([O-])c1ccc(C2Nn3c(nnc3-c3ccccc3)S2)cc1 (centres undefined)
120 to 150	CC(C)(C)c1ccc(C2CCC3(CC2)Cc2ccc(C(=O)n4cc(CCCC(=O)O)c5ccccc54)cc2C3)cc1 (centres undefined)
362 to 363	COC(=O)C1=C(C(=O)OC)C(=O)C(=C2C=Cc3ccccc3N2)C1=O
65 to 69	OCc1csc(-c2ccccc2)n1
176	CC(C)(C)N(NC(=O)c1ccccc1)C(=O)c1cccc(F)c1
255	COc1ccccc1N/N=C(/C#N)c1nc2ccccc2c(=O)[nH]1
150 to 152	COc1ccc(OC)c(S(N)(=O)=O)c1
131 to 132	CCOC(=O)c1c(-c2ccccc2)csc1NC(=O)c1ccccc1Cl
144 to 145	O=C(O)c1snnc1-c1ccccc1
150	COc1ccc(C(=O)c2noc(-c3ccc(Br)cc3)c2S(=O)(=O)c2ccccc2)cc1
122	Cc1ccc(C(=O)C=Cc2ccc(Cl)cc2)cc1
127 to 128	CN(C)c1ccc(C=C/C(=N\Nc2ccccc2)c2ccccc2)cc1
65 to 75	Clc1ccc(C(c2ccccc2)N2CCNCC2)cc1 (centres undefined)
95	COc1cc(C(=O)Oc2ccc(/C=C/C(=O)c3ccccc3)cc2)cc(OC)c1OC
128 to 131	COc1ccc2nc(C#N)sc2c1
278 to 279	Nc1cc2[nH]c(=O)c(C(=O)c3ccccc3)cc2cc1C=O
102 to 103	CC(=O)NC(C)c1ccccc1 (centres undefined)

melting point [°C]	Compound
181	[O-][P+](c1ccccc1)(c1ccccc1)C1Sc2ccccc2S1
214 to 215	COc1cc(C=C2SC(=S)N(CNc3cccc([N+](=O)[O-])c3)C2=O)ccc1O
198 to 199	O=[N+]([O-])c1ccc(NN=CC2=C(C#Cc3ccccc3)CCCC2)c([N+](=O)[O-])c1
207	CN(C1=NC(=Cc2ccccc2)C(=O)N1c1ccccc1)c1ccccc1
205	c1ccc(-c2nnc3n2CN(c2ccccc2)CS3)cc1
-60	CC(C)C(=O)OCCCc1ccccc1
37	Nc1ccc(Cc2ccccc2)cc1
247 to 257	O=C1CCCc2c1nc(-c1ccccc1)n2O
147	[O-][P+](O)(O)CCN(CP(c1ccccc1)c1ccccc1)CP(c1ccccc1)c1ccccc1
128 to 130	N#Cc1cnccc1/C=C/c1ccccc1
170	CCOC(=O)c1nn(-c2ccc(C)cc2)c(C)c1C(=O)c1noc(-c2ccc(Br)cc2)c1S(=O)(=O)c1ccccc1
198 to 200	CCOc1ccc(-c2nnc3n2NC(c2ccc(OC)cc2)S3)cc1 (centres undefined)
210	CN(C)c1ccc(/C=C(\C(N)=O)c2nc3ccccc3s2)cc1
140	CCOC(=O)/C(C#N)=C/c1ccc(-c2ccc(Cl)cc2)o1
119	O=C(COC(=O)c1ccccc1)c1ccccc1
258 to 261	COc1ccc2[nH]cc(CC(N)C(=O)O)c2c1 (racemic)
165 to 166	COc1ccc(Br)c(C(=O)NN)c1
110	COc1cc(C(=O)c2ccc(C)cc2)c([N+](=O)[O-])cc1OC
211 to 212	S=C(NN=Cc1c(-c2ccc(Cl)cc2)[nH]c2ccccc12)Nc1ccccc1
67.5	Clc1cc(Cl)c2ccccc2n1
266	COc1cc(O)c2c(=O)c3cc(O)ccc3oc2c1
75	CC1=C(c2ccccc2)Cc2ccccc21
243 to 245	O=C(O)c1ccc(-c2ccccc2)nc1

The next lines start with the molecule.

Compound	melting point [°C]
C=C(O[Si](C)(C)C)c1c(C)c(C)c(C)c(C)c1C	41
N#Cc1ccccc1-n1ccnc1	148 to 151
Oc1ccc(C2CCCCC2)cc1	133
OCC1Cc2ccccc2N1 (centres undefined)	49 to 58
Cc1nc(-c2ccc(C(F)(F)F)cc2)sc1C#N	155 to 156
Cc1ccc(C)c(Cl)c1	1.6
CCCCCCCCCCCCCCCCCC(=O)OCCCC	27
O=C(O)c1ccc(Br)c([N+](=O)[O-])c1	204
CCSC(SCC)=C1CCCC(=C(SCC)SCC)C1=C(C#N)C#N	100 to 102
COc1c(C#N)cc(C)c2c1CCC2	62 to 63
C=CC(=O)OCCN(C)C	-60
CN(C)CCc1c[nH]c2cccc(O)c12	174
O=C(O)c1cc(C(=O)O)c(C(=O)O)cc1C(=O)O	281 to 284
O=S(=O)(Cl)c1cccc(Cl)c1	21
CCOc1ccc(NC(=O)C(F)(F)C(F)(F)C(F)(F)C(F)(F)C(F)(F)C(F)(F)C(F)(F)C(F)(F)F)cc1	135
CCOC(=O)c1nnsc1N	124
CCCCCCN1CC(C(=O)OC)CC1=O (centres undefined)	4
Cc1ccc(O)cc1N	158
COc1cccc(C=C[N+](=O)[O-])c1	91 to 93
Nc1cc(O)nc(N)n1	285 to 286
CCCCCCCCCCCCOc1ccc(C(C)=O)cc1OCCCCCCCCCCCC	62 to 67
Nc1ccc(O)cc1F	139
O=C(Nc1ccc([N+](=O)[O-])cc1Br)C1(F)C(F)(F)C(F)(F)C(F)(F)C(F)(F)C1(F)F	102
O=C(O)c1ccncc1	315
C=C1C(=O)OC2C1CCC(C)C1(O)C=CC(=O)C21C (centres undefined)	164
Brc1ccc(Oc2ccc(Br)cc2Br)c(Br)c1	78.5 to 79

Compound	melting point [°C]
Nc1nc2ccc(OC(F)(F)F)cc2s1	119
Oc1cc(Cl)cc(Cl)c1Cl	62
CSc1nc(N)nc(-c2cccnc2)n1	243 to 254
O=C(O)c1ccsc1Br	174 to 175
Cc1ccc(C)c2c(=O)c(=O)c12	133
CCN(CC)c1ccc(C=C2SC(=S)NC2=O)cc1	163
O=C1NC(=O)c2c(Cl)c(Cl)c(Cl)c(Cl)c21	300
CCCC(N)P(=O)(O)O (centres undefined)	276 to 281
COC1C(OC(=O)C=CC=CC=CC=CC(=O)O)CCC2(CO2)C1C1(C)OC1CC=C(C)C (centres undefined)	194
COC(=O)c1cccnc1N	84 to 86
COC(=O)c1sc(N2CCCCC2)c(C#N)c1N	184 to 185
CN(C)c1ccc(C=C2C3=C(CCCC3)OC3=C2CCCC3)cc1	164
O=C(CN1CCNCC1)N1CCCC1	75 to 76
Cc1nc(N)nc(O)n1	300
COC(=O)c1c(OC)ccc(OC)c1C(=O)OC	101
COC(=O)CCc1ccc2c(c1)CCC(=O)N2	134
CC(CC(=O)O)CC(C)(C)C (centres undefined)	-70
CC1OC(C)OC(C)OC(C)O1 (centres undefined)	246
Oc1cccc2c(O)nccc12	270 to 275
COC(=O)c1ccncc1	12.1
O=C1CCN(C(=O)CCl)N1	146
CC(=O)c1cccc(N=C=S)c1	26 to 28
CCSCC[C@@H](N)C(=O)O	278
CC(C)CCCC(C)CCCC(C)CCCCC(C)CCCC(C)CCCC(C)C (centres undefined)	-38
NC(=S)N1CCOCC1	153 to 156
CC(=O)OC1C2=C(C(=O)C(OC(C)=O)C3(CC3C)C2=O)C2(C)CCC(C)=C(C)C2C1O (centres undefined)	176 to 178

Compound	melting point [°C]
Cc1cc(S(=O)(=O)Cl)c(Cl)cc1Cl	72
Brc1cc2c(cc1Br)Oc1cc(Br)c(Br)cc1O2	334
C=CC1CN2CCC1CC2C12Nc3ccccc3C1(O)CCO2 (centres undefined)	186
CN(C)C(=O)NC1CCCCCCC1	138
ON=Cc1ccc(Cl)cc1Cl	134 to 136
NS(=O)(=O)c1c(Cl)nc2sccn12	176 to 177
Nc1ccc(Br)c(Cl)c1Cl	75 to 77
C=C1C2CCC3(O)C4(C)CCCC(C)(C(=O)OC5OC(CO)C(O)C(O)C5O)C4CCC3(C2)C1O (centres undefined)	218 to 220
O=C(O)CCSCCCSCCC(=O)O	107 to 109
O=[N+]([O-])c1ccc(/C=C/C=C/C=C/c2ccc([N+](=O)[O-])cc2)cc1	240
Cc1ccc(C(N)=NO)cc1F	105 to 107
N#Cc1ccc(-c2ccsc2)cc1	109 to 111
CCCc1c(C(=O)O)cnn1-c1cc(Cl)cc(Cl)c1	169 to 171
Cc1cc(C)n(CN(CCO)Cn2nc(C)cc2C)n1	82 to 84
Cc1ncc(CSSCc2cnc(C)c(O)c2CO)c(CO)c1O	219
O=[N+]([O-])c1cc(F)ccc1Cl	38
Cc1cc(C)n2nc(N)c(/N=N/c3cc(Cl)ccc3Cl)c2n1	279
CC(C)(C)C1=CC(=Cc2cc(C(C)(C)C)c(O)c(C(C)(C)C)c2)C=C(C(C)(C)C)C1=O	156 to 160
C#CC(C)(CC)OC(N)=O (centres undefined)	55.8
C=CN1CCCCCC1=O	34
NC(CO)CO	54
CCCCCCCCCCCCN1CCCCCC1=O	-7
O=C(Nc1nc2ccccc2s1)C(F)(F)C(F)(F)C(F)(F)C(F)(F)C(F)(F)C(F)(F)C(F)(F)C(F)(F)F	168 to 170
CN=C(N)c1cc(C(C)(C)C)c(O)c(C(C)(C)C)c1	280 to 281
N=C(N)NC(=N)N	136
SCCCS	-79
